Assay results: article PMC3506384 (Cancer chemotherapy and pharmacology, 2011)
Where two headings read alike, the source gives them in different places.

Tests used:
[1] = Phase I dose escalation; assay type: in vivo, human
[2] = cited from earlier work
[3] = cited from earlier work; remark: listed apart in the source
[4] = clinical; conditions: human, plasma; for half-life: intravenous
[5] = Bortezomib plasma pharmacokinetics, non-compartmental, LC-MS/MS
[6] = co-administration of ketoconazole; cited from earlier work
[7] = Serum anticonvulsant levels in group A patients; assay type: in vivo, human; conditions: all 3 patients in group A; at PK sampling on days 2 and 9 of cycle 1
[8] = patients not taking concomitant HEIAs (group B)
[9] = Day 2, bortezomib 1.0 mg/m^2, group A (taking HEIAs), N 1
[10] = Day 2, bortezomib 1.0 mg/m^2, group B (not taking HEIAs), N 13, median (range)
[11] = Day 2, bortezomib 1.3 mg/m^2, group A (taking HEIAs), N 1
[12] = Day 2, bortezomib 1.3 mg/m^2, group B (not taking HEIAs), N 6, median (range)
[13] = Day 2, bortezomib 1.5 mg/m^2, group A (taking HEIAs), N 1
[14] = Day 2, bortezomib 1.5 mg/m^2, group B (not taking HEIAs), N 1
[15] = Day 9, bortezomib 1.0 mg/m^2, group A (taking HEIAs), N 1
[16] = Day 9, bortezomib 1.0 mg/m^2, group B (not taking HEIAs), N 13, median (range)
[17] = Day 9, bortezomib 1.3 mg/m^2, group A (taking HEIAs), N 1
[18] = Day 9, bortezomib 1.3 mg/m^2, group B (not taking HEIAs), N 6, median (range)

SMILES: Cn1nnc2c(C(N)=O)ncn2c1=O [temozolomide]
- recommended dose for phase 2 studies, temozolomide in the combination ([1]; patients not taking HEIAs, days 1–5, every 28 days): 200 mg/m^2
- MTD of temozolomide in combination with bortezomib ([1]; patients not taking HEIAs, days 1–5 of a 28-day cycle): 200 mg/m^2
- MTD of temozolomide in combination with bortezomib [1, 8]: 200 mg/m^2/dose
- individual MTD (single agent) ([2]; temozolomide alone): 200 mg/m^2

SMILES: CC(C)C[C@H](NC(=O)[C@H](Cc1ccccc1)NC(=O)c1cnccn1)B(O)O [bortezomib]
- MTD of bortezomib in combination with temozolomide ([1]; patients not taking HEIAs, days 2, 5, 9, 12 of a 28-day cycle): 1.3 mg/m^2
- recommended dose for phase 2 studies, bortezomib in the combination ([1]; patients not taking HEIAs, days 2, 5, 9 and 12, every 28 days): 1.3 mg/m^2
- MTD of bortezomib in combination with temozolomide [1, 8]: 1.3 mg/m^2/dose
- MTD of single agent bortezomib ([3]; recurrent malignant glioma patients not taking HEIAs): 1.7 mg/m^2
- MTD of single agent bortezomib ([3]; recurrent malignant glioma patients receiving concurrent HEIAs): 2.5 mg/m^2
- half-life ([4]; 1 mg/m2): 11.3 h
- half-life ([4]; 1.3 mg/m2): 12.4 h
- half-life ([4]; 1.5 mg/m2): 6.4 h
- Cmax ([4]; iv, 1 mg/m^2): 65.5 ng/mL
- AUC 0–∞ [5, 9]: 20.8 µg·h/L
- CLsys [5, 9]: 115.7 L/h
- AUC 0–∞ [5, 10]: 33.6 (21–106) ug/l × h
- CLsys [5, 10]: 46.6 (17–90) l/h
- Elimination T1/2 [5, 10]: 12.7 (2–21) h
- AUC 0–∞ [5, 11]: 40.4 µg·h/L
- CLsys [5, 11]: 64.4 L/h
- AUC 0–∞ [5, 12]: 56.1 (34–97) ug/l × h
- CLsys [5, 12]: 44.0 (21–81) l/h
- Elimination T1/2 [5, 12]: 18.8 (13–26) h
- AUC 0–∞ [5, 13]: 30.6 µg·h/L
- CLsys [5, 13]: 94.8 L/h
- AUC 0–∞ [5, 14]: 137.4 µg·h/L
- CLsys [5, 14]: 16.0 L/h
- AUC 0–∞ [5, 15]: 30.7 µg·h/L
- CLsys [5, 15]: 78.1 L/h
- Elimination T1/2 [5, 15]: 15.5 h
- AUC 0–∞ [5, 16]: 86.8 (32–216) ug/l × h
- CLsys [5, 16]: 20.7 (9–59) l/h
- AUC 0–∞ [5, 17]: 72.4 µg·h/L
- CLsys [5, 17]: 35.9 L/h
- Elimination T1/2 [5, 17]: 11.1 h
- AUC 0–∞ [5, 18]: 120.0 (78–206) ug/l × h
- CLsys [5, 18]: 21.2 (10–33) l/h
- Elimination T1/2 [5, 18]: 18.9 (12–41) h
- CLsys on day 9 as percent of the CLsys on day 2 ([5]; median percent change, P < 0.01, paired Wilcoxon test, all patients with PK): 51%
- rapid initial decline of plasma concentration ([5]; within the first few hours after the dose, both groups): 100 fold
- mean increase in systemic exposure of bortezomib with ketoconazole [6]: 35%
- individual MTD (single agent) ([2]; bortezomib alone): 1.6 mg/m^2

SMILES: O=C1NC(=O)C(c2ccccc2)(c2ccccc2)N1 [phenytoin]
- serum phenytoin levels [7]: within the therapeutic range
